Paper PMC7022466, “Developing Clinically Relevant Dissolution Specifications for Oral Drug Products—Industrial and Regulatory Perspectives” (Pharmaceutics, 2019)
Like-named read-outs stand apart in the source and are kept apart here.

How the values were obtained:
[1] = Solubility in biorelevant media; format: physicochemical
From the text: (§1) In a first step, the physico-chemical characteristics of both API forms were compared in biorelevant media. Table 1 provides an overview of the solubility data and intrinsic dissolution properties. For both API forms, the compound is practically insoluble in water, irrespective of pH, but it undergoes substantial solubilization in the presence of bile. […] However, as the solubility of the newly isolated form is about 40% lower when compared to canagliflozin hemihydrate, the bioavailability in the fasted state conditions remains uncertain.

[2] = Intrinsic dissolution rate in biorelevant media; format: physicochemical
From the text: as §1

BCS classification = format: physicochemical
From the text: The Biopharmaceutics Classification System (BCS) provides a well-established framework for assessing the biopharmaceutics risk of immediate release drug products, based on properties of the Active Pharmaceutical Ingredient (API) and drug product. The compounds are classified into one of four groups, according to their solubility and permeability properties. Compounds in BCS Class 1 (high solubility, high permeability) and BCS Class 3 (high solubility, low permeability) are eligible for biowaivers, i.e., the requirement for an in vivo bioequivalence study is waived if certain requirements are met. For the development of CRDS for these compounds, the BCS effectively acts as an accepted body of ‘prior knowledge’, as the ability of dissolution in simple aqueous buffers across the physiological pH range to ensure in vivo bioequivalence is already well established. This can form the basis of CRDS for BCS Class 1 and 3 compounds, unless additional data are generated to justify the further widening of these limits for a specific drug product.
During the experiments for continuous process improvements of JNJ-1, a new crystal form has been isolated from the drug substance crude crystallization step. The new form appeared to be the thermodynamically favoured form in the process conditions. […]

[3] = Food effect (high-fat meal) on absorption; format: in vivo; conditions: clinically relevant dose strengths
From the text: as §1
The integration of the biopharmaceutical parameters relevant for drug absorption in a more physiological context further expanded the risk assessment. For this, a PBBM model was developed and validated for JNJ-1 while using GastroPlus™ (version 8.5). Based on the available physicochemical properties, in vitro biopharmaceutical experimentation, biorelevant dissolution data, and clinical PK parameters, the model was able to simulate the in vivo observed clinical PK data.

[4] = virtual simulation, 120 mg tablets; cited from earlier work
[5] = cited from earlier work
[6] = set-up: method as in PMID 25182387; conditions: cited from earlier work
[7] = set-up: method as in PMID 25182387; conditions: pH 4.5 and 6.8; cited from earlier work

Structure (SMILES): Cc1ccc([C@@H]2O[C@H](CO)[C@@H](O)[C@H](O)[C@H]2O)cc1Cc1ccc(-c2ccc(F)cc2)s1.O [Registered crystal form, canagliflozin hemihydrate]
- Solubility FaSSIF ([1]; FaSSIF): 0.54 mg/mL
- Solubility FeSSIF ([1]; FeSSIF): 5.00 mg/mL
- Solubility SGF ([1]; SGF): 0.037 mg/mL
- Intrinsic Dissolution Rate FaSSIF ([2]; FaSSIF): 13.8 µg/min/cm^2
- Intrinsic Dissolution Rate FeSSIF ([2]; FeSSIF): 157.9 µg/min/cm^2
- Intrinsic Dissolution Rate SGF ([2]; SGF): 3.9 µg/min/cm^2
- BCS class (BCS classification): BCS class 4
- Effect of a high-fat meal on absorption [3]: absence of any effect

Structure (SMILES): Cc1ccc(-c2ncc(Cl)cc2-c2ccc(S(C)(=O)=O)cc2)cn1 [etoricoxib]
- Predicted AUC0-120 hr and Cmax bioequivalence of two sites formulations [4]: bioequivalent
- Bioequivalence of formulations from the two sites, clinical study [5]: bioequivalent
- BCS class [6]: BCS II
- F2 similarity test of dissolution profiles between two sites [7]: failed
